Read-outs that look alike come from different tables or passages of the source.
Target: BTK (Homo sapiens (Human), UniProt Q06187)
Assay: Btk in vitro inhibitory activity (one of Method A TR-FRET, Method B electrophoretic mobility shift, Method C radiometric filter binding)
Assay type: biochemical
[1] = determined using one of the methods of Example 355a, 355b and 355c, read-out: BTK IC50

Chain of BTK (Q06187 whole entry): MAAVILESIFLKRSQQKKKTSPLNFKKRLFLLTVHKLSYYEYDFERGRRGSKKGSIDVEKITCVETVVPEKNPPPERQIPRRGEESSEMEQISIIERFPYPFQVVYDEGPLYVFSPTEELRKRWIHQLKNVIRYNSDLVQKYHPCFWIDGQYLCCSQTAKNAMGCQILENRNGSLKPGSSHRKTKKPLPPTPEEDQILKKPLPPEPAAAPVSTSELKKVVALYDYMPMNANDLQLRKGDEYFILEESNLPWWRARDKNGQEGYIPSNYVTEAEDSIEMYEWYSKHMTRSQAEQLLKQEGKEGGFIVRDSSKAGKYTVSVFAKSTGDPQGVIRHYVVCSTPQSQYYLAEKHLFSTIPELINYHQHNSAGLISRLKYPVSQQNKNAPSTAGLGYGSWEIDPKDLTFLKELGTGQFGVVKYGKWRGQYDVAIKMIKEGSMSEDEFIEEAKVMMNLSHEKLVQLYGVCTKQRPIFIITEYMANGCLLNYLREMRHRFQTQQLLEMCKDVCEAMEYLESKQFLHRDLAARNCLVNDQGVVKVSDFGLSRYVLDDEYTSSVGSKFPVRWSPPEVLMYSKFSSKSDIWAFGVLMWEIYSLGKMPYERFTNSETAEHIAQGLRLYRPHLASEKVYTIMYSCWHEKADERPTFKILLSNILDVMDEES

SMILES	IC50 [1] [µM]	IC50 (Btk (IC50)) [µM]	IC50 (read-out: Btk (IC50)) [µM]	IC50 [µM]
CN(C)C(=O)N[C@@H]1CCCN(c2cnc(C(N)=O)c(Nc3cnn(C4CCCC4)c3)n2)C1 [Example 217, (R)-3-(1-cyclopentyl-1H-pyrazol-4-ylamino)-5-(3-(3,3-dimethylureido)piperidin-1-yl)pyrazine-2-carboxamide]	0.01 to 0.1			
CN(C)C(=O)N[C@@H]1CCCN(c2cnc(C(N)=O)c(Nc3cnn(C4CCN(C5CCCC5)CC4)c3)n2)C1 [Example 218, (R)-3-(1-(1-cyclopentylpiperidin-4-yl)-1H-pyrazol-4-ylamino)-5-(3-(3,3-dimethylureido)piperidin-1-yl)pyrazine-2-carboxamide]	< 0.01			
CN(C)C(=O)N[C@@H]1CCCN(c2cnc(C(N)=O)c(Nc3cnn(C4CCN(C(=O)C5CC5)CC4)c3)n2)C1 [Example 219, (R)-3-(1-(1-(cyclopropanecarbonyl)piperidin-4-yl)-1H-pyrazol-4-ylamino)-5-(3-(3,3-dimethylureido)piperidin-1-yl)pyrazine-2-carboxamide]	0.01 to 0.1	0.01 to 0.1		
CN(C)C(=O)N[C@@H]1CCCN(c2cnc(C(N)=O)c(Nc3ccc(C4(C)CCNCC4)cc3)n2)C1 [Example 221, (R)-5-(3-(3,3-dimethylureido)piperidin-1-yl)-3-(4-(4-methylpiperidin-4-yl)phenylamino)pyrazine-2-carboxamide]	< 0.01		< 0.01	
CN(C)C(=O)N[C@@H]1CCCN(c2cnc(C(N)=O)c(Nc3ccc(C4(C)CCN(C5CCCC5)CC4)cc3)n2)C1 [Example 222, (R)-3-(4-(1-cyclopentyl-4-methylpiperidin-4-yl)phenylamino)-5-(3-(3,3-dimethylureido)piperidin-1-yl)pyrazine-2-carboxamide]	< 0.01		< 0.01	
CN(C)C(=O)N[C@@H]1CCCN(c2cnc(C(N)=O)c(Nc3ccc(C4(C)CCN(C(=O)N(C)C)CC4)cc3)n2)C1 [Example 223, (R)-3-(4-(1-(dimethylcarbamoyl)-4-methylpiperidin-4-yl)phenylamino)-5-(3-(3,3-dimethylureido)piperidin-1-yl)pyrazine-2-carboxamide]	< 0.01		< 0.01	
CCC(=O)N1CCC(C)(c2ccc(Nc3nc(N4CCC[C@@H](NC(=O)N(C)C)C4)cnc3C(N)=O)cc2)CC1 [Example 224]	< 0.01			
CN(C)C(=O)N(C)[C@@H]1CCCN(c2cnc(C(N)=O)c(Nc3ccc(C4CCN(C5CCCC5)CC4)cc3)n2)C1 [Example 225, (R)-3-(4-(1-cyclopentylpiperidin-4-yl)phenylamino)-5-(3-(1,3,3-trimethylureido)piperidin-1-yl)pyrazine-2-carboxamide]	< 0.01	0.01 to 0.1		
CN(C)C(=O)N1CCC(c2ccc(Nc3nc(N4CCC[C@@H](N(C)C(=O)N(C)C)C4)cnc3C(N)=O)cc2)CC1 [Example 226, (R)-3-(4-(1-(dimethylcarbamoyl)piperidin-4-yl)phenylamino)-5-(3-(1,3,3-trimethylureido)piperidin-1-yl)pyrazine-2-carboxamide]	0.01 to 0.1	0.01 to 0.1		
CCC(=O)N1CCC(c2ccc(Nc3nc(N4CCC[C@@H](N(C)C(=O)N(C)C)C4)cnc3C(N)=O)cc2)CC1 [Example 227, (R)-3-(4-(1-propionylpiperidin-4-yl)phenylamino)-5-(3-(1,3,3-trimethylureido)piperidin-1-yl)pyrazine-2-carboxamide]	0.01 to 0.1	0.01 to 0.1		
CN(C)C(=O)N(C)[C@@H]1CCCN(c2cnc(C(N)=O)c(Nc3ccc(C4CCN(S(C)(=O)=O)CC4)cc3)n2)C1 [Example 228, (R)-3-(4-(1-(methylsulfonyl)piperidin-4-yl)phenylamino)-5-(3-(1,3,3-trimethylureido)piperidin-1-yl)pyrazine-2-carboxamide]	0.01 to 0.1			0.01 to 0.1
CN(C)C(=O)N(C)[C@@H]1CCCN(c2cnc(C(N)=O)c(Nc3ccc(N4CCS(=O)(=O)CC4)cc3)n2)C1 [Example 229, (R)-3-(4-(1,1-dioxothiomorpholino)phenylamino)-5-(3-(1,3,3-trimethylureido)piperidin-1-yl)pyrazine-2-carboxamide]	0.01 to 0.1			0.01 to 0.1
C[C@@H]1[C@H](N)CCCN1c1cnc(C(N)=O)c(Nc2ccc(C3CCN(C4CCCC4)CC3)cc2)n1 [Example 230, 5-((2R,3R)-3-amino-2-methylpiperidin-1-yl)-3-(4-(1-cyclopentylpiperidin-4-yl)phenylamino)pyrazine-2-carboxamide]	0.01 to 0.1	0.01 to 0.1		
C[C@H]1[C@H](N)CCCN1c1cnc(C(N)=O)c(Nc2ccc(C3CCN(C4CCCC4)CC3)cc2)n1 [Example 231, 5-((2S,3R)-3-amino-2-methylpiperidin-1-yl)-3-(4-(1-cyclopentylpiperidin-4-yl)phenylamino)pyrazine-2-carboxamide]	0.1 to 1	0.1 to 1		
C[C@@H]1[C@H](NC(=O)N(C)C)CCCN1c1cnc(C(N)=O)c(Nc2ccc(C3CCN(C4CCCC4)CC3)cc2)n1 [Example 232, 3-(4-(1-cyclopentylpiperidin-4-yl)phenylamino)-5-((2R,3R)-3-(3,3-dimethylureido)-2-methylpiperidin-1-yl)pyrazine-2-carboxamide]	< 0.01		< 0.01	
C[C@H]1[C@H](NC(=O)N(C)C)CCCN1c1cnc(C(N)=O)c(Nc2ccc(C3CCN(C4CCCC4)CC3)cc2)n1 [Example 233, 3-(4-(1-cyclopentylpiperidin-4-yl)phenylamino)-5-((2S,3R)-3-(3,3-dimethylureido)-2-methylpiperidin-1-yl)pyrazine-2-carboxamide]	0.1 to 1	0.1 to 1		
CC[C@@H]1[C@H](NC(=O)N(C)C)CCCN1c1cnc(C(N)=O)c(Nc2ccc(C3CCN(C4CCC4)CC3)cc2)n1 [Example 236, 3-(4-(1-cyclobutylpiperidin-4-yl)phenylamino)-5-((2R,3R)-3-(3,3-dimethylureido)-2-ethylpiperidin-1-yl)pyrazine-2-carboxamide]	< 0.01		< 0.01	
C[C@@H]1[C@H](NC(=O)N(C)C)CCCN1c1cnc(C(N)=O)c(Nc2ccc(C3CCN(C4CC4)CC3)cc2)n1 [Example 237, 3-(4-(1-cyclopropylpiperidin-4-yl)phenylamino)-5-((2R,3R)-3-(3,3-dimethylureido)-2-methylpiperidin-1-yl)pyrazine-2-carboxamide]	< 0.01	< 0.01		
C[C@@H]1[C@H](NC(=O)N(C)C)CCCN1c1cnc(C(N)=O)c(Nc2ccc(C3CCN(C4CCC4)CC3)cc2)n1 [Example 238, 3-(4-(1-cyclobutylpiperidin-4-yl)phenylamino)-5-((2R,3R)-3-(3,3-dimethylureido)-2-methylpiperidin-1-yl)pyrazine-2-carboxamide]	< 0.01		< 0.01	
C[C@@H]1[C@H](NC(=O)N(C)C)CCCN1c1cnc(C(N)=O)c(Nc2ccc(C3(C(F)(F)F)CC3)cc2)n1 [Example 239, 5-((2R,3R)-3-(3,3-dimethylureido)-2-methylpiperidin-1-yl)-3-(4-(1-(trifluoromethyl)cyclopropyl)phenylamino)pyrazine-2-carboxamide]	< 0.01		< 0.01	
C[C@@H]1[C@H](NC(=O)N(C)C)CCCN1c1cnc(C(N)=O)c(Nc2ccc(C3(C#N)CC3)cc2)n1 [Example 240, 3-(4-(1-cyanocyclopropyl)phenylamino)-5-((2R,3R)-3-(3,3-dimethylureido)-2-methylpiperidin-1-yl)pyrazine-2-carboxamide]	< 0.01		< 0.01	
C[C@@H]1[C@H](NC(=O)N(C)C)CCCN1c1cnc(C(N)=O)c(Nc2ccc(C3(C(N)=O)CC3)cc2)n1 [Example 241, 3-(4-(1-carbamoylcyclopropyl)phenylamino)-5-((2R,3R)-3-(3,3-dimethylureido)-2-methylpiperidin-1-yl)pyrazine-2-carboxamide]	< 0.01			
Cc1cc(Nc2nc(N3CCC[C@@H](NC(=O)N(C)C)[C@H]3C)cnc2C(N)=O)sn1 [Example 242, 5-((2R,3R)-3-(3,3-dimethylureido)-2-methylpiperidin-1-yl)-3-(3-methylisothiazol-5-ylamino)pyrazine-2-carboxamide]	< 0.01			
CC(C)Oc1ccc(Nc2nc(N3CCC[C@@H](NC(=O)N(C)C)[C@H]3C)cnc2C(N)=O)cc1 [Example 243, 5-((2R,3R)-3-(3,3-dimethylureido)-2-methylpiperidin-1-yl)-3-(4-isopropoxyphenylamino)pyrazine-2-carboxamide]	< 0.01			
C[C@@H]1[C@H](NC(=O)N(C)C)CCCN1c1cnc(C(N)=O)c(Nc2ccc(S(C)(=O)=O)cc2)n1 [Example 244, 5-((2R,3R)-3-(3,3-dimethylureido)-2-methylpiperidin-1-yl)-3-(4-(methylsulfonyl)phenylamino)pyrazine-2-carboxamide]	< 0.01			
C[C@@H]1[C@H](NC(=O)N(C)C)CCCN1c1cnc(C(N)=O)c(Nc2ccc(C3(C)CCN(C4CCC4)CC3)cc2)n1 [Example 246, 3-(4-(1-cyclobutyl-4-methylpiperidin-4-yl)phenylamino)-5-((2R,3R)-3-(3,3-dimethylureido)-2-methylpiperidin-1-yl)pyrazine-2-carboxamide]	< 0.01		< 0.01	
C[C@@H]1[C@H](NC(=O)N(C)C)CCCN1c1cnc(C(N)=O)c(Nc2ccc(C3(C)CCN(C4CC4)CC3)cc2)n1 [Example 247, 3-(4-(1-cyclopropyl-4-methylpiperidin-4-yl)phenylamino)-5-((2R,3R)-3-(3,3-dimethylureido)-2-methylpiperidin-1-yl)pyrazine-2-carboxamide]	< 0.01		< 0.01	
C[C@@H]1[C@H](NC(=O)N(C)C)CCCN1c1cnc(C(N)=O)c(Nc2ccc(C3(C#N)CCCC3)cc2)n1 [Example 248, 3-(4-(1-cyanocyclopentyl)phenylamino)-5-((2R,3R)-3-(3,3-dimethylureido)-2-methylpiperidin-1-yl)pyrazine-2-carboxamide]	< 0.01		< 0.01	
C[C@@H]1[C@H](NC(=O)N(C)C)CCCN1c1cnc(C(N)=O)c(Nc2ccc(C3(C(N)=O)CCCC3)cc2)n1 [Example 249, 3-(4-(1-carbamoylcyclopentyl)phenylamino)-5-((2R,3R)-3-(3,3-dimethylureido)-2-methylpiperidin-1-yl)pyrazine-2-carboxamide]	< 0.01		< 0.01	
